The assay relates to RSV subgenomic replicon 395 HeLa. Put plainly: RSV replicon assay (Renilla luciferase, 395 HeLa replicon cells). Format: cell-based. The note with it: human respiratory syncytial virus, 168 h. An excerpt:
The RSV subgenomic replicon 395 HeLa was licensed from Apath (Brooklyn, N.Y.) and was originally developed by Dr. Mark Meeples of Center for Vaccines & Immunity, the Research Institute at Nationwide Children's Hospital in Columbus, Ohio. To generate subgenomic RSV replicon, three glycoprotein genes, those for SH, G, and F, from a full-length recombinant GFP-expressing (rg) RSV antigenomic cDNA were deleted. In their place, a blasticidin S deaminase (bsd) gene was inserted. Through multiple steps, the RSV replicon was established in HeLa cells. The 395 HeLa cells were cultured in Dulbecco's Modified Eagle Medium (DMEM) containing 4500 mg/L D-glucose, L-glutamine, and 110 mg/L sodium pyruvate (Invitrogen, Cat. #11995-040). The medium was further supplemented with 10% (v/v) fetal bovine serum (FBS) (Mediatech, Cat. #35-010-CV), 1% (v/v) penicillin/streptomycin (Mediatech, Cat. #30-002-CI), and 10 μg/mL of Blasticidin (BSD) (Invivogen, Cat. code ant-b1-1). Cells were maintained at 37° C. in a humidified 5% CO2 atmosphere.
Determination of 50% inhibitory concentration […], 90% inhibitory concentration (C90) and 50% cytotoxic concentration […] in RSV replicon cells were performed by the following procedure. […]
The Renilla Luciferase Assay System (Promega, Cat. #E2820) was used to measure anti-RSV replicon activity. […] Luminescence was recorded using a Perkin Elmer multilabel counter Victor3V.
(Replicon systems follow genome replication, usually without infectious particles.)

EC50 data for one compound are collected here from US20160045528A1, “COMBINATION THERAPY FOR TREATING A PARAMYXOVIRUS” (priority 2014, published 2016).

What is called EC50 is the concentration at which the effect is half-maximal. High values mean weaker potency, low ones greater potency.

As for `[2H]C([2H])(OC(=O)C(C)C)[C@@]1(CCl)O[C@@H](n2ccc(N)nc2=O)[C@H](F)[C@@H]1OC(=O)C(C)C` [Compound 31], the concentration giving a half-maximal response (EC50) is < 1000 nM.
